We go through 3 compounds from patent publication US5929039A, “Method for treating cardiac dysfunction and pharmaceutical compositions useful therefor” (Baker Medical Research Institute, priority 1993, dated 1999).

Experiment [1] has as its system inositol phosphate accumulation in heart tissue. As to the kind of experiment: Inositol phosphate accumulation in healthy (normoxic) heart tissue. Also on record: species or system rat. As for the experimental part:
(§1) Adult male sprague dawley rats 250-300 g were used. Where indicated, rats were treated with reserpine (5 mg/kg I.P. for 18 hrs prior to killing) to deplete endogenous noradrenaline stores.. Rats were heparinized 1 U/g I.P. 30 minutes prior to killing by decapitation. Hearts were rapidly excised and immediately chilled in ice-cold saline. Under ice-cold solution, hearts were cannulated via the ascending aorta as described by Langendorff and perfused retrogradely at a rate of 5 ml/min with HEPES-buffered Krebs solution equilibrated with 5%CO2 -95%O2 at 37° C. Initial perfusion was in a non-recirculating manner to remove internal blood. Hearts were allowed to warm up gradually and, when free of internal blood, transferred to a 37° C. water-jacketed organ bath containing carbogenated Krebs medium, and perfusion continued in a recirculating manner. Following a 15 minute equilibration period, hearts were labelled with [^3 H]-inositol, 2 μCi/ml for 2 h. Hearts were monitored throughout the labelling period for strong rhythmic beating.
(§2) Inositol phosphates were extracted from ventricle samples in 3.5 ml ice-cold 5% trichloroacetic acid (TCA), 2.5 mM EDTA, 5 mM phytate solution, as described previously (21). Briefly, ventricles were homogenised with two 10 second passes of a "Polytron" homogenizer separated by 15 second periods on ice. Samples were homogenised further using a Potter-Elvejheim homogeniser followed by brief sonication. Homogenised samples were centrifuged (5000 rpm, 10 min, 4° C.) to remove TCA insoluble material. Supernatants were collected, and the remaining pellet re-extracted in 1.5 ml TCA, EDTA, phytate. Supernatants were pooled and freon, tri-n-ocylamine (1:1 v/v 0.75 ml:1 ml TCA solution) was added, mixed thoroughly, and phases separated by low speed centrifugation (2000 rpm, 10 min 4° C.). The resultant aqueous phase, containing inositol phosphates was collected and treated with proteinase K (50 μg/ml, 2 hr, 50° C.). This process was necessary to preserve the chromatography column. Treated samples were passed through a 1 ml Dowex-50 column (4% cross-linked 4-400 mesh size) and eluted with 1 ml water (22). Urea (0.05 M final) was added (23) and samples lyophilized prior to high performance liquid chromatography (HPLC) analysis. Recovery of inositol phosphates using this method was greater than 95% for each isomer, as estimated by addition of [^3 H]-labelled standards to extractions of unlabelled hearts.
Inositol phosphates were separated by an anion-exchange HPLC system using a Whatman Partisil 10μ SAX column in a Waters Radial Compression Unit, employing a complex ammonium phosphate gradient, pH 3.8 from 0-2 M as described previously (24). Inositol phosphates were detected and quantitated using an on-line […] (model CR, Radiomatic Instruments) All peaks were identified by comparison with commercial standards. Nucleotide standards AMP, ADP, and ATP were run with samples to assess column performance.

In experiment [2] the test system is in situ perfused rat hearts. The conditions noted are these: for Reperfusion-induced arrhythmias VF % incidence / Reperfusion-induced arrhythmias VT % incidence: control 83; for arrhythmias occurring during the ischaemic phase: at the higher concentrations. As for the experimental part:
(§3) A model of in situ perfused rat hearts subjected to 20 minutes coronary artery occlusion to induce ischaemia, followed by reperfusion was used to investigate reperfusion-induced arrhythmias.
(§4) Rats (250-300 g) were anaesthetised (pentobarbitone 60 mg/kg, I.P.) and heparinised (200 U/rat I.V.) The thorax was then opened and a metal cannula (ID 1 mm) inserted and tied into the ascending aorta, to commence Langendorff perfusion in situ (31). The interval from opening the chest to commencing heart perfusion was between 50 and 70 seconds. The perfusate was Krebs buffer, with coronary flow controlled by a Ismatac peristaltic pump at a rate of 5 ml/g heart weight/min for the non-ischaemic perfusion. At this flow rate the coronary perfusion pressure was between 32-38 mmHg, measured by pressure transducer (Gould Statham model p23) connected to the sidearm of the perfusion line. Following aortic cancellation, pulmonary vessels were tied off. In some preparations, ventricular pressure was measured by inserting a Millar micro-tip transducer catheter into the left ventricular cavity via the apex. All parameters--coronary perfusion pressure, ventricular pressure, and epicardial ECG, were constantly recorded on a Grass model 7 polygraph. Two hearts were perfused and simultaneously studied.
(§5) A silk suture (4.0) was positioned loosely around the left coronary artery 2-3 mm from its origin. Two silk releasing rings were placed around the suture for subsequent release of occlusion. Successful occlusion of the artery, inducing regional ischaemia, was indicated by increases in coronary perfusion pressure of at least 30%. Perfusion pressure was adjusted to non-ischaemic perfusion levels during the ischaemic period.
(§6) Drugs were added to the perfusion via a Harvard Model 22 pump. The drug flow was less than 1% of perfusion flow to ensure constant perfusate parameters. Unless mentioned otherwise, the drugs were present 10 minutes before, and during the entire ischaemic and reperfusion periods.
(§7) Heart preparations were allowed to stabilise for at least 20 minutes prior to commencing studies. Following 10 minute drug incubation, the left coronary artery was ligated to induce local ischaemia, for a period of 20 minutes. At the end of this ischaemic period, the ligature was released and hearts perfused at pre-ischaemic flow for a period of 5 minutes. Ventricular arrhythmias, occurring during ischaemia or during the first 2 minutes of reperfusion were defined according to the Lambeth Conventions (32).
Incidence of arrhythmias was analysed using a .chi.^2 test, with n≥8 for each group.

The test system of experiment [3] is isolated neonatal cardiomyocytes. As to the kind of experiment: Inositol phosphate accumulation in isolated neonatal cardiomyocytes. It counts as cell-based.
Experiment [4] concerns Ins(1,4,5)P3 release. As to the kind of experiment: Ins(1,4,5)P3 mass in isolated perfused rat hearts, 2 min reperfusion after 20 min global ischaemia (competitive binding assay). As to conditions: for Ins(1,4,5)P3 mass: 2 min reperfusion after 20 min global ischaemia, control 200 ± 18. As for the experimental part:
as §1
(§8) Following labelling, the [^3 H]-inositol-containing medium was removed, and replaced with Krebs medium containing propranolol (10^-6 M) and lithium chloride (50 mM) to block β-adrenergic receptors and to inhibit InsP metabolism by InsP 1'-phosphatase respectively (20). Hearts were perfused with propranolol, LiCi solution for 10 minutes prior to ischaemia. Antagonists, when administered, were included in this 10 minute preincubation. Normothermic global ischaemia was induced by terminating perfusion for various times up to 30 minutes. Reperfusion was examined following a 20 minute ischaemic period by resuming perfusion at 5 ml/min. Reactions were terminated by freezing hearts in liquid N2 following excision at the atrioventricular junction. Frozen ventricles were weighed and inositol phosphates extracted as described below.
as §2
Mass of Ins(1,4,5)P3 was measured using a competitive binding assay (Amersham TRK 1000) essentially as described previously (26). Ventricle samples were prepared as described above except for the omission of [^3 H]-label during the 2 hr perfusion of hearts prior to ischaemia, and for the use of 5 mm ATP instead of phytate in the extraction procedure.
Protein concentration was determined in aliquots of TCA pellet following InsP extraction using a modified Lowry method with Bovine Serum Albumin as a standard.
Values presented are mean ±SEM, for n=4 unless otherwise stated. Statistical analysis of results involved Students' unpaired "t-test" for all InsP data.

The subject of experiment [5] is PC-PLD brain. As to conditions: read-out: average EC50 PC-PLD brain; from the literature (35); cited from earlier work.
Experiment [6] concerns PI-PLC kidney cy. As to conditions: cytosolic enzyme; from the literature (35); cited from earlier work.
The subject of experiment [7] is PI-PLC kidney me. As to conditions: membrane enzyme; from the literature (35); cited from earlier work.
Experiment [8] has as its system PI-PLC heart rep. As to the kind of experiment: Inhibition of PI-PLC in hearts under reperfusion conditions. Also on record: species or system rat. The procedure: as §1, §8
Mass of Ins(1,4,5)P3 was measured using a competitive binding assay (Amersham TRK 1000) essentially as described previously (26). […]

The test system of experiment [9] is Ins(1,4,5)P3 release. As to the kind of experiment: Thrombin-stimulated release of Ins(1,4,5)P3 in heart tissue. As to conditions: at concentrations similar to those inhibiting the noradrenaline response under reperfusion.
The test system of experiment [10] is rats. As for the experimental part: Rats were not heparinised so that effects of thrombin will be contributory to observed arrhythmias.
Rats were anaesthetised with pentobarbitone (60 mg/Kg IP) and artificially ventilated with room air. The chests were opened via the forth intercostal space, and the heart exposed. A 4.0 suture was placed around the left coronary artery and then passed through a guided polyethylene cannula. The thorax was closed leaving the threaded cannula outside the chest. The right carotid artery was cannulated for recording of arterial blood pressure. After stabilisation for 20-30 minutes, the left coronary artery was ligated by pulling the ends of the ligature through the tube and securing them by clamping the tube together with the threads. The ischaemic period was 10 minutes followed by reperfusion. Arterial blood pressure and a lead II ECG was recorded 3 minutes before and during ischaemia, and for the first 5 minutes of reperfusion. […] The size of the ischaemic area was determined at the end of the experiment by the dye method. […] Gentamicin was infused at a dose of 2.5-10 mg/Kg/min prior to initiation of ischaemia and maintained throughout the protocol.

Experiment [11] has as its system hearts from reserpinized rats. The experiment can be described thus: Arrhythmic effect of thrombin under reperfusion conditions, perfused hearts from reserpinized rats. Also on record: species or system rat. As to conditions: reserpinized hearts. As for the experimental part:
as §3, §4, §5, §6, §7
The finding that thrombin directly stimulated release of Ins(1,4,5)P3 in heart indicates the possibility that thrombin might cause arrhythmias directly via this mechanism. Experiments were performed using hearts from reserpinized rats so that arrhythmic events initiated by noradrenaline were eliminated. Reperfusion arrhythmias were not observed in hearts from reserpinized animals. […] Furthermore, these arrhythmias were inhibited by gentamicin, indicating a relationship to release of Ins(1,4,5)P3 (Table 2).

Where two headings read alike, the source gives them in different places.

As for `COc1ccc2c(c1)CC[C@@H]1[C@@H]2CC[C@]2(C)[C@@H](NCCCCCCN3C(=O)C=CC3=O)CC[C@@H]12` [U-73122], in experiment [1], the “release of Ins(1,4,5)P3 in intact heart preparations” value is on record as “did not inhibit”. For the same compound, the results for the “inhibition of accumulation of inositol phosphates” value in [1] (heart tissue under noradrenaline stimulation) and in experiment [3] were “did not inhibit” and “fully effective inhibitor”, respectively. Besides, in experiment [2], the anti-arrhythmic activity result is recorded as “without anti-arrhythmic activity”. Further, the VF% in experiment [2] (10^-6 M, n 12, control 63) is listed as 61%. In addition, the VT% in experiment [2] (10^-6 M, n 12, control 100) was determined as 88%.

The EC50 is the concentration needed to bring the measured effect to its halfway point. As for `[H]/N=C(/N)N[C@H]1[C@H](O)[C@@H](O)[C@H](O[C@@H]2O[C@@H](C)[C@](O)(C=O)[C@H]2O[C@@H]2O[C@@H](CO)[C@H](O)[C@@H](O)[C@@H]2NC)[C@@H](N/C(N)=N\[H])[C@@H]1O` [streptomycin], the “potency of inhibition of reperfusion-induced Ins(1,4,5)P3 release relative to neomycin” value in experiment [4] is given as “more potent inhibitors”. For the same compound, the “Ins(1,4,5)P3 mass” value in experiment [4] (0.015 mM) is 201 ± 16 pmol/mg protein; in experiment [4] (0.15 mM), 167 ± 5 pmol/mg protein; in experiment [4] (1.5 mM) it was 94 ± 11 pmol/mg protein. The EC50 was 125 µM in [5], 380 µM in experiment [6], 2850 µM in [7] and 150 µM in [8]. The “effect on reperfusion arrhythmias” value in experiment [2] is “inhibited”. For the same compound, the entries for the “Reperfusion-induced arrhythmias VF % incidence” value in experiment [2] (0.015 mM), in [2] (0.15 mM) and in experiment [2] (1.5 mM) were 27%, 6% and 27%, respectively. Further, the figures for the “Reperfusion-induced arrhythmias VT % incidence” value in experiment [2] (0.015 mM), in experiment [2] (0.15 mM) and in experiment [2] (1.5 mM) were 45%, 25% and 45%, respectively. Also, in [2], the “arrhythmias occurring during the ischaemic phase” value was “partial inhibition”.

In the case of gentamicin, the “inhibition of thrombin-stimulated release of Ins(1,4,5)P3” value in [9] is listed as “inhibited”. The “size of ischaemic area vs control animals” value in [10] (dye method, 2.5-10 mg/Kg/min) is given as “no difference”. Further, in [10] (infused 2.5-10 mg/Kg/min), the “arrhythmias occurring under ischaemic conditions in vivo” value is recorded as “effective”. Besides, in experiment [10] (infused 2.5-10 mg/Kg/min), the “development of reperfusion arrhythmias in vivo” value was “inhibited”. Also, the “VF% reperfusion arrhythmias in vivo” value in experiment [10] (infused 2.5-10 mg/Kg/min, 10 min occlusion then reperfusion, n 10, control 68) is 0%. Besides, the “VT% reperfusion arrhythmias in vivo” value in [10] (infused 2.5-10 mg/Kg/min, 10 min occlusion then reperfusion, n 10, control 100) is on record as 30%. Further, the “potency of inhibition of reperfusion-induced Ins(1,4,5)P3 release relative to neomycin” value in [4] is given as “more potent inhibitors”. In addition, the results for the “Ins(1,4,5)P3 mass” value in [4] (0.015 mM), in experiment [4] (0.15 mM) and in experiment [4] (1.5 mM) were 145 ± 2 pmol/mg protein, 136 ± 22 pmol/mg protein and 102 ± 17 pmol/mg protein, respectively. Besides, the EC50 was 130 µM in experiment [6], 500 µM in experiment [7] and 15 µM in [8]. For the same compound, in experiment [2], the “effect on reperfusion arrhythmias” value is on record as “inhibited”. Also, in experiment [2], the “rank of potency against reperfusion arrhythmias” value was “most potent agent tested”. Moreover, the “Reperfusion-induced arrhythmias VF % incidence” value in [2] (0.015 mM) is listed as 25%; in [2] (0.15 mM), 27%; in experiment [2] (1.5 mM) it was 8%. Moreover, the “Reperfusion-induced arrhythmias VT % incidence” value is on record as 58% in [2] (0.015 mM), 27% in experiment [2] (0.15 mM) and 17% in experiment [2] (1.5 mM). Also, in experiment [2], the “arrhythmias occurring during the ischaemic phase” value is on record as “partial inhibition”. In addition, the thrombin-induced reperfusion arrhythmias result in [11] was “inhibited”.
